Source: paper PMC5530730, “^11C-Labeling of Aryl Ketones as Candidate Histamine Subtype-3 Receptor PET Radioligands through Pd(0)-Mediated ^11C-Carbonylative Coupling” (Molecules : A Journal of Synthetic Chemistry and Natural …, 2017)
Read-outs that look alike come from different tables or passages of the source.

Key:
H2R = H2R (Homo sapiens, UniProt P25021); test: Competitive binding, displacement of [3H]tiotidine, PDSP; settings: human recombinant receptors expressed in HEK293T cells, read-out: Affinity (Ki, nM) H2
[1] = molecular target: cloned human H3 receptors; set-up: method as in PMID 15634000; settings: [3H]α-methylhistamine; membranes of C6 cells expressing cloned human H3 receptors; read-out: Affinity (Ki, nM) H3 (lit); cited from earlier work
H1R = H1R (Homo sapiens, UniProt P35367); test: Competitive binding, displacement of [3H]pyrilamine, PDSP; settings: human recombinant receptors expressed in HEK293T cells, read-out: Affinity (Ki, nM) H1
H3 receptors = H3 receptors (Cavia porcellus, UniProt Q9JI35); test: Competitive binding, displacement of [3H]α-methylhistamine, PDSP; set-up: species or system guinea pig
[2] = [3H]α-methylhistamine, guinea pig cells expressing H3 receptors, NIMH PDSP, read-out: Affinity (Ki, nM) H3

Sequence of H2R (P25021 whole entry): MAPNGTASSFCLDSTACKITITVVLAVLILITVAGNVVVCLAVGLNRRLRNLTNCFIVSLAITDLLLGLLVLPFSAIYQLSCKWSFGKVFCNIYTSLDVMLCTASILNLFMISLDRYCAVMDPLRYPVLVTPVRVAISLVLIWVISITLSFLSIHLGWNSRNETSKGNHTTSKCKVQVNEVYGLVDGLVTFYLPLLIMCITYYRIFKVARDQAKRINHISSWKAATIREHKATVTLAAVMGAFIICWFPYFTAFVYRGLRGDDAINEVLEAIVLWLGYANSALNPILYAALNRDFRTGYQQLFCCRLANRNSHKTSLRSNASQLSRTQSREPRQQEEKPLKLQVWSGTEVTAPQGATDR
Sequence of H1R (P35367 whole entry): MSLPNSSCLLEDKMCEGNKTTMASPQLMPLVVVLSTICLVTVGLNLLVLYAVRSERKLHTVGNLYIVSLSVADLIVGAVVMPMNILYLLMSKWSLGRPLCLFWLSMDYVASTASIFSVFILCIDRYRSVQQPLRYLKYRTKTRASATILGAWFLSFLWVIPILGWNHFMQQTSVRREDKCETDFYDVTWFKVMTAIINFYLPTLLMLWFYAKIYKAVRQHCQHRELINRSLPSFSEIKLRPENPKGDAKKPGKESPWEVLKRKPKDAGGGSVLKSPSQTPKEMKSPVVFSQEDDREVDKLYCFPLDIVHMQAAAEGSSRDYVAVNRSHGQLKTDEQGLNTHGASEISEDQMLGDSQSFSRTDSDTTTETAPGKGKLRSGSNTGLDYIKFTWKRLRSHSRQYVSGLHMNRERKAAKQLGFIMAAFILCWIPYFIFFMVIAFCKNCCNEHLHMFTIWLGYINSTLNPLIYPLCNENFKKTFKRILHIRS
Sequence of H3 receptors (Q9JI35 whole entry): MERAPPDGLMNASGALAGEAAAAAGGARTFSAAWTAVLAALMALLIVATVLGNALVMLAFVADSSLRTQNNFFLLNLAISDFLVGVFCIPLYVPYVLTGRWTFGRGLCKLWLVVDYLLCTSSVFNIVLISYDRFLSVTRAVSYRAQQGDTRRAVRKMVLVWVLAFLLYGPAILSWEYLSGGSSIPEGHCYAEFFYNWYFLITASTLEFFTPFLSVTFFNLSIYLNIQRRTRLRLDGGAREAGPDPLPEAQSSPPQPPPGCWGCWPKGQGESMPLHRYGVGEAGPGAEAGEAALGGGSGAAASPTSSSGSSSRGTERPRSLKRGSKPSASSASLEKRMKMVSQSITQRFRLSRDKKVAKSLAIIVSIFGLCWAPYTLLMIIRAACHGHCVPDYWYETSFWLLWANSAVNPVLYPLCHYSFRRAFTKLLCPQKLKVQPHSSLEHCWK

Ki (H2R)	Ki (H1R)	Ki (H3 receptors; [2])	SMILES	Ki [1]	Ki (H3 receptors)
630 nM	> 10000 nM	2.9 nM	C[C@@H]1CCCN1CCc1cc2cc(C(=O)c3cc(F)cc(F)c3)ccc2o1 [Ligand 4, (R)-(3,5-Difluorophenyl)(2-(2-(2-methylpyrrolidin-1-yl)ethyl)benzofuran-5-yl)methanone]	0.09 nM	–
1370 nM	> 10000 nM	4.9 nM	C[C@@H]1CCCN1CCc1cc2cc(C(=O)c3cccc(F)c3)ccc2o1 [Ligand 3]	0.1 nM	–
706 nM	1030 nM	2.1 nM	C[C@@H]1CCCN1CCc1cc2cc(C(=O)c3ccc([N+](=O)[O-])cc3)ccc2o1 [Ligand 1]	–	–

SMILES	Ki (H2R)	Ki (H1R)	Ki (H3 receptors; [2])	Ki [1]	Ki (H3 receptors)
C[C@@H]1CCCN1CCc1cc2cc(C(=O)c3ccc(F)cc3)ccc2o1 [Ligand 2]	923 nM	7050 nM	–	–	4.2 nM
